Assay results reported in patent publication US10793543B2, “Selective C-KIT kinase inhibitor” (PRECEDO PHARMACEUTICALS CO., LTD, priority 2016, dated 2020).

Assays:
[1] = tested on: Tel-ABL-BaF3 cells (ABL WT); test: Cell proliferation, CCK-8, Tel-ABL-BaF3; type: cell-based; conditions: Mus musculus; Tel-ABL-BaF3, ABL WT, 72 hours, CCK-8; read-out: GI50
Text: In addition, in the present example, further uses: mouse P210/BaF3 (stably expressing P210 Bcr-Abl mutant gene), mouse Tel-ABL-BaF3 (stably expressing wild-type ABL kinase), mouse Tel-cKit-BaF3 (stably expressing C-KITwild-type kinase), mouse Tel-cKit/V559D-BaF3 (stably expressing C-KIT V559D mutant kinase), mouse Tel-cKit/V559D/V654A-BaF3 (stably expressing C-KIT V559D/V654A mutant kinase), mouse Tel-cKit/N822K-BaF3 (stably expressing C-KIT N822K mutant kinase), mouse Tel-cKit/V654A-BaF3 (stably expressing C-KIT V654A mutant kinase), mouse Tel-cKit/L567P-BaF3 (stably expressing C-KIT L567P mutant kinase), mouse Tel-cKit/T670I-BaF3 (stably expressing C-KIT T670I mutant kinase), mouse Tel-PDGFRα-BaF3 (stably expressing PDGFRα kinase), mouse Tel-PDGFRβ-BaF3 (stably expressing PDGFRβ kinase), mouse Tel-VEGFR2-BaF3 (stably expressing VEGFR2 kinase), mouse Tel-RET-BaF3 (stably expressing RET kinase). […]
(§1) The cells were incubated for 72 hours, and then the number of viable cells was quantified with a microplate reader by using CCK-8 Cell Viability Assay Kit (purchased from Bestbio Company, Shanghai, China) (CCK-8 can be reduced by dehydrogenase in living cells to a highly water-soluble yellow formazan product, and the amount of formazan produced is proportional to the number of living cells).

[2] = tested on: GIST-T1 cells; test: Cancer cell proliferation, CCK-8, GIST-T1; type: cell-based; conditions: Homo sapiens, GISTT1, GIST-T1, KIT WT, 72 hours
Text: (§2) In the present example, the following cells were used: chronic myelogenous leukemia cells K562 (expressing P210 Bcr-Abl mutant gene), human megakaryocytic leukemia cells MEG-01 (expressing P210 Bcr-Abl mutant gene), human peripheral blood basophilic leukemia cells Ku812 (expressing Bcr-Abl mutant gene) (all above cells purchased from ATCC, USA), human gastrointestinal stromal tumor cell lines GIST-T1 cells (expressing wild-type C-KIT gene) (purchased from Cosmo Bio Co., Ltd., Japan), human gastrointestinal stromal tumor cell lines GIST-882 cells (expressing wild-type C-KIT gene) (presented by the Professor Gray Lab, Dana-Farber Cancer Institute, Harvard University, USA), mouse pro-B cells BaF3 (purchased from ATCC, USA).
as §1

[3] = tested on: GIST-882 cells; test: Cancer cell proliferation, CCK-8, GIST-882; type: cell-based; conditions: Homo sapiens, GIST882, GIST-882, KIT WT, 72 hours
Text: as §2, §1

[4] = tested on: Tel-cKit/V559D-BaF3 cells (KIT V559D); test: Cell proliferation, CCK-8, Tel-cKit/V559D-BaF3; type: cell-based; conditions: Mus musculus, 72 hours
Text: (§3) In addition, in the present example, further uses: mouse P210/BaF3 (stably expressing P210 Bcr-Abl mutant gene), mouse Tel-ABL-BaF3 (stably expressing wild-type ABL kinase), mouse Tel-cKit-BaF3 (stably expressing C-KITwild-type kinase), mouse Tel-cKit/V559D-BaF3 (stably expressing C-KIT V559D mutant kinase), mouse Tel-cKit/V559D/V654A-BaF3 (stably expressing C-KIT V559D/V654A mutant kinase), mouse Tel-cKit/N822K-BaF3 (stably expressing C-KIT N822K mutant kinase), mouse Tel-cKit/V654A-BaF3 (stably expressing C-KIT V654A mutant kinase), mouse Tel-cKit/L567P-BaF3 (stably expressing C-KIT L567P mutant kinase), mouse Tel-cKit/T670I-BaF3 (stably expressing C-KIT T670I mutant kinase), mouse Tel-PDGFRα-BaF3 (stably expressing PDGFRα kinase), mouse Tel-PDGFRβ-BaF3 (stably expressing PDGFRβ kinase), mouse Tel-VEGFR2-BaF3 (stably expressing VEGFR2 kinase), mouse Tel-RET-BaF3 (stably expressing RET kinase). The above cell lines were all constructed by our laboratory according to the following method: the kinase region sequences of human P210 Bcr-Abl, ABL, C-KIT, C-KIT V559D, C-KIT V559D/V654A, C-KIT N822K, C-KIT V654A, C-KIT L567P, C-KIT T670I, PDGFRα, PDGFRβ, VEGFR2, RET were amplified respectively by PCR, inserted respectively into MSCV-Puro vectors harboring N-terminal TEL fragment and/or NPM fragment and/or TPR fragment (Clontech), then the vectors were stably transfected into mouse BaF3 cells by retrovirus methods and growth factor IL-3 was removed, eventually obtaining cell lines that are transferred protein (P210 Bcr-Abl, ABL, C-KIT, C-KIT V559D, C-KIT V559D/V654A, C-KIT N822K, C-KIT V654A, C-KIT L567P, C-KIT T670I, PDGFRα, PDGFRβ, VEGFR2, RET)-dependent.
as §1

[5] = tested on: Tel-cKit/L576P-BaF3 cells (KIT L576P); test: Cell proliferation, CCK-8, Tel-cKit/L576P-BaF3; type: cell-based; conditions: Mus musculus, 72 hours
Text: as §3, §1

[6] = tested on: Tel-RET-BaF3 cells (RET WT); test: Cell proliferation, CCK-8, Tel-RET-BaF3; type: cell-based; conditions: Mus musculus, 72 hours
Text: as §3, §1

[7] = tested on: cells expressing wild-type ABL and mutant Bcr-Abl kinase; test: Cell proliferation, text summary for ABL/Bcr-Abl cells; type: cell-based; conditions: summary of Table 2
Text: as §2, with “USA). […]” for “USA).”
as §1

[8] = tested on: phosphorylation of C-KIT and pathway proteins in GIST-T1 cells; test: Effects on cell signaling pathways (phosphorylation), GIST-T1; type: cell-based, human; conditions: GIST-T1, 0.1 μM, 2 hours
[9] = tested on: GIST-T1 cells; test: Cell cycle distribution by flow cytometry, GIST-T1; type: cell-based, human; conditions: GIST-T1, treated 24 hours
[10] = molecular target: T1, protein kinase C-KIT (Homo sapiens, UniProt P10721); test: In vitro enzyme activity assay (ADP-Glo); type: biochemical; conditions: purified C-KIT kinase domain, ATP 10 μM
T1 construct: The kinase domain of protein kinase C-KIT was cloned into the insect expression vector pFASTHTA; His tag; made in house; host or cells: SF9 insect cells (Bac-to-Bac baculovirus system)
Method: The IC50 value of Compound 4 against protein kinase C-KIT was determined in an in vitro enzyme activity assay. The kinase domain of protein kinase C-KIT was cloned into the insect expression vector pFASTHTA (purchased from Invitrogen life technologies), and the protein with His tag was expressed using the insect expression system Bac-to-Bac Baculovirus Expression System (purchased from Invitrogen life technologies). The constructed vector was transfected into SF9 packaging virus (purchased from Invitrogen life technologies), and the virus was used to infect SF9 to express the protein. Purification was performed using affinity chromatography.
9 μL (6 ng/μL) of purified C-KIT protein kinase was reacted with 1 μL of the above Compound 4 with 3× gradient dilution (the final concentrations of the drug were 10 μM, 3 μM, 1 μM, 0.3 μM, 0.1 μM, 0.03 μM, 0.01 μM, 0.003 μM) at room temperature for 4 hours;
2 μL of ATP and 3 μL of substrate, Poly(4:1 Glu, Tyr)Peptide (Promega, US), were added (final concentrations were 10 μM and 0.2 μg/μL, respectively), and reacted at 37° C. for 1 hour; […]
10 μL of kinase detection reagent was added to transfer ADP into ATP, and the newly synthesized ATP was detected by using coupled luciferase/fluorescein reaction, then the IC50 values were calculated by using a plotting method based on the Envision reading.

T1 sequence (P10721 589-937 limits assumed): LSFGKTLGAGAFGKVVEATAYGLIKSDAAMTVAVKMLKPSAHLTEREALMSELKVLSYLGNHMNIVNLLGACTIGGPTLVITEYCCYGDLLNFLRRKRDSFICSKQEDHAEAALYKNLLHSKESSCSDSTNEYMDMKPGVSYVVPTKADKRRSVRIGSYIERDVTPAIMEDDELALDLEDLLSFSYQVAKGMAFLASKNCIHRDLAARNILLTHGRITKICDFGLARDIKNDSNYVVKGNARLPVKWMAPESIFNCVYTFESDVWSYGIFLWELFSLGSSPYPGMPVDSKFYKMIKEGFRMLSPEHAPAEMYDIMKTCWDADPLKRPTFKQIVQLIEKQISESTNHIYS

SMILES: Cc1ccc(NC(=O)c2cccc(C(F)(F)F)c2)cc1OC1CCN(C(=O)c2ccncc2)CC1 [Compound 4]
- GI50 [1]: 5060 nM
- GI50 [2]: 21 nM
- GI50 [3]: 43 nM
- GI50 [4]: 40 nM
- GI50 [5]: 148 nM
- GI50 [6]: 590 nM
- GI50 [7]: > 5000 nM
- phosphorylation of C-KIT oncogenic protein [8]: significantly inhibiting
- phosphorylation of proteins such as Stat5, AKT, ErK, S6K, S6, PDGFRα [8]: significant inhibitory effects
- effect on cell cycle [9]: significantly blocked in the GO-G1 phase
- IC50 [10]: 99 nM
